Measurements published in patent US11015223B2, “Methods for determining response to a hypomethylating agent” (THE REGENTS OF THE UNIVERSITY OF CALIFORNIA, priority 2013, dated 2021).

Tested on: MDS patients
Experiment: Response to treatment by IWG response criteria revised in 2006 (CR/PR/HI = responders)
Format: in vivo, human
From the text: A total of 213 MDS patients treated azacitidine or decitabine were included in this study. Samples were obtained from patients treated at the Dana-Farber Cancer Institute (n=42), the MD Anderson Cancer Center (n=104), and as part of the DACO-020 (ADOPT) clinical trial of decitabine (n=67). All samples were collected with patient consent under IRB-approved protocols in accordance with the Declaration of Helsinki. There were no significant differences in baseline patient characteristics by treatment site (Table 1).
Response to treatment was assessed using IWG response criteria revised in 2006. Patients with either a complete response (CR), partial response (PR), or hematologic improvement (HI) were considered as ‘responders’ (R, n=100, 47%). whereas patients described as having ‘no response’, ‘stable disease’, ‘progressive disease’, ‘death’ before response assessment, or ‘not evaluable’ were considered ‘non-responders’ (NR, […], 53%).
Categorical variables were compared using a Fisher exact test, while continuous variables were compared using a Wilcoxon rank-sum test. A Cochran-Mantel-Haenszel (CMH) test was used to test for differences in response rate by mutational status controlling for treatment. Unadjusted and adjusted logistic regression models were used to predict response to therapy. A stepwise algorithm for logistic regression was also utilized to determine a final model; candidate variables considered for inclusion were all mutations, treatment, IPSS classification, age, and sex. The Hosmer and Lemeshow goodness-of-fit test was used to assess model fit for logistic regression models. Overall survival was calculated from the time of treatment to the time of death from any cause or was censored at the date last known alive. Unadjusted and adjusted Cox regression models were constructed for overall survival. A stepwise regression algorithm for Cox regression models was used including the same candidate variables as in the logistic regression modeling. Classification trees were also created using the Rpart package in R version 2.11.1 to classify responders based on mutational status. Cross-validation was used for tree pruning. All p-values reported are two-sided and considered significant at the 0.05 level. No adjustments were made for multiple hypothesis testing.

For Decitabine+, which “Non-Responders (NR/SD/PD/Died/NE) (%)” value (all patients on the treatment) is on record?
The value was “(56) %”.

And the “Non-Responders (NR/SD/PD/Died/NE) N” value (all patients on the treatment)?
Its value is 15 N.

What about the “Responders (CR/PR/HI) (%)” value (all patients on the treatment) of the same substance?
The value was “(44) %”.

What about the “Responders (CR/PR/HI) N” value (all patients on the treatment) of the same substance?
Its value is 12 N.

What about the “Responders (CR/PR/HI) (%)” value (all patients on the treatment, listed as Dec Plus) of the same substance?
The value was 44%.

And the “Response (%)” value (patients with ASXL1 mutation)?
The value was 50%.

What about the “Response N” value (patients with ASXL1 mutation) of the same substance?
The value was 3 N.

What about the “Response (%)” value (patients with ATRX mutation) of the same substance?
The value was 100%.

And the “Response N” value (patients with ATRX mutation)?
Its value is 1 N.

And the “Response (%)” value (patients with BCOR mutation)?
The value was 50%.

What about the “Response N” value (patients with BCOR mutation) of the same substance?
The value was 1 N.

What about the “Response (%)” value (patients with CBL mutation) of the same substance?
Its value is 0 (0) %.

And the “Response N” value (patients with CBL mutation)?
The value was 0 (0) N.

What about the “Response (%)” value (patients with DNMT3A mutation) of the same substance?
The value was 67%.

What about the “Response N” value (patients with DNMT3A mutation) of the same substance?
Its value is 4 N.

And the “Response (%)” value (patients with ETV6 mutation)?
Its value is 0 (0) %.

And the “Response N” value (patients with ETV6 mutation)?
Its value is 0 (0) N.

And the “Response (%)” value (patients with EZH2 mutation)?
Its value is 0 (0) %.

And the “Response N” value (patients with EZH2 mutation)?
The value was 0 (0) N.

And the “Response (%)” value (patients with IDH1 mutation)?
The value was 0 (0) %.

What about the “Response N” value (patients with IDH1 mutation) of the same substance?
The value was 0 (0) N.

What about the “Response (%)” value (patients with IDH2 mutation) of the same substance?
Its value is 0 (0) %.

What about the “Response N” value (patients with IDH2 mutation) of the same substance?
The value was 0 (0) N.

And the “Response (%)” value (patients with JAK2 mutation)?
Its value is 0 (0) %.

And the “Response N” value (patients with JAK2 mutation)?
Its value is 0 (0) N.

And the “Response (%)” value (patients with KDM3A mutation)?
The value was 0 (0) %.

And the “Response N” value (patients with KDM3A mutation)?
The value was 0 (0) N.

What about the “Response (%)” value (patients with KDM6B mutation) of the same substance?
The value was 100%.

What about the “Response N” value (patients with KDM6B mutation) of the same substance?
The value was 3 N.

And the “Response (%)” value (patients with KRAS mutation)?
Its value is 0 (0) %.

And the “Response N” value (patients with KRAS mutation)?
Its value is 0 (0) N.

What about the “Response (%)” value (patients with MAML1 mutation) of the same substance?
The value was 75%.

What about the “Response N” value (patients with MAML1 mutation) of the same substance?
The value was 3 N.

And the “Response (%)” value (patients with NF1 mutation)?
Its value is 50%.

What about the “Response N” value (patients with NF1 mutation) of the same substance?
The value was 1 N.

What about the “Response (%)” value (patients with NOTCH1 mutation) of the same substance?
Its value is 0 (0) %.

What about the “Response N” value (patients with NOTCH1 mutation) of the same substance?
The value was 0 (0) N.

What about the “Response (%)” value (patients with NOTCH2 mutation) of the same substance?
The value was 100%.

What about the “Response N” value (patients with NOTCH2 mutation) of the same substance?
The value was 5 N.

What about the “Response (%)” value (patients with NPM1 mutation) of the same substance?
The value was 100%.

What about the “Response N” value (patients with NPM1 mutation) of the same substance?
The value was 1 N.

What about the “Response (%)” value (patients with NRAS mutation) of the same substance?
Its value is 50%.

What about the “Response N” value (patients with NRAS mutation) of the same substance?
Its value is 1 N.

What about the “Response (%)” value (patients with PHF6 mutation) of the same substance?
The value was 0 (0) %.

What about the “Response N” value (patients with PHF6 mutation) of the same substance?
Its value is 0 (0) N.

What about the “Response (%)” value (patients with PRPF8 mutation) of the same substance?
The value was 0 (0) %.

What about the “Response N” value (patients with PRPF8 mutation) of the same substance?
The value was 0 (0) N.

What about the “Response (%)” value (patients with PTPN11 mutation) of the same substance?
Its value is 67%.

What about the “Response N” value (patients with PTPN11 mutation) of the same substance?
Its value is 2 N.

And the “Response (%)” value (patients with RUNX1 mutation)?
Its value is 75%.

And the “Response N” value (patients with RUNX1 mutation)?
The value was 3 N.

And the “Response (%)” value (patients with SCAF11 mutation)?
The value was 100%.

What about the “Response N” value (patients with SCAF11 mutation) of the same substance?
The value was 2 N.

What about the “Response (%)” value (patients with SF3B1 mutation) of the same substance?
The value was 50%.

And the “Response N” value (patients with SF3B1 mutation)?
Its value is 2 N.

What about the “Response (%)” value (patients with SRSF2 mutation) of the same substance?
The value was 50%.

And the “Response N” value (patients with SRSF2 mutation)?
Its value is 2 N.

And the “Response (%)” value (patients with TET2 mutation)?
Its value is 80%.

And the “Response N” value (patients with TET2 mutation)?
Its value is 4 N.

And the “Response (%)” value (patients with TLR1 mutation)?
Its value is 67%.

And the “Response N” value (patients with TLR1 mutation)?
The value was 2 N.

And the “Response (%)” value (patients with TP53 mutation)?
The value was 42%.

And the “Response N” value (patients with TP53 mutation)?
Its value is 5 N.

What about the “Response (%)” value (patients with U2AF1 mutation) of the same substance?
The value was 0 (0) %.

What about the “Response N” value (patients with U2AF1 mutation) of the same substance?
Its value is 0 (0) N.

And the “Response (%)” value (patients with ZRSR2 mutation)?
The value was 0 (0) %.

And the “Response N” value (patients with ZRSR2 mutation)?
Its value is 0 (0) N.
